We go through 22 molecules from patent US9840478B2 (MERCK SHARP & DOHME CORP., priority 2013, dated 2017).

Molecules are shown by their SMILES. pIC50: −log10 of the molar value.

One assay relates to HIV-1 (H9IIIB strain). Nature of the assay: Cell-based HIV infection assay using a reporter (Cell-Based), MT4-GFP cells. As to conditions: Human immunodeficiency virus 1, MT4-GFP cells infected with HIV-1 H9IIIB; 50% normal human serum; mean of at least two independent experiments; read-out: Cell-based IP. Put shortly:
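MT4-GFP cells (HIV LTR-driven GFP) infected 24 h with HIV-1 H9IIIB at low MOI, then washed and plated with compounds in RPMI + 50% normal human serum, 0.4% DMSO final. Green cells counted at 24 and 48 h; R0 = 48 h/24 h ratio, inhibition normalized to DMSO and triple-drug control; IC50 from 4-parameter fit.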
Take `C[C@@H]1CNC[C@H](CCc2c(F)cccc2NC(=O)[C@@H](N)[C@@H](c2ccc(Cl)cc2)c2cccc(F)c2)N1S(=O)(=O)C1CC1` [Example 204, (βS)-4-chloro-N-(2-{2-[(2S,6R)-1-(cyclopropylsulfonyl)-6-methylpiperazin-2-yl]ethyl}-3-fluorophenyl)-β-(3-fluorophenyl)-L-phenylalaninamide]: the pIC50 is 7.10.

For the molecule `CS(=O)(=O)N1[C@@H](CCc2c(F)cccc2NC(=O)[C@@H](N)[C@@H](c2ccc(F)cc2)c2cc(F)cc(F)c2)CNC[C@@H]1C1CC1` [Example 205, (βS)-N-(2-{2-[(2S,6S)-6-cyclopropyl-1-(methylsulfonyl)piperazin-2-yl]ethyl}-3-fluorophenyl)-β-(3,5-difluorophenyl)-4-fluoro-L-phenylalaninamide], the pIC50 was 7.66.

Take `CC(C)[C@H](c1cccc(Cl)c1)[C@H](N)C(=O)Nc1cccc(F)c1CC[C@H]1CNC[C@@H](C)N1S(=O)(=O)c1ccccc1` [Example 206, (βR)-3-chloro-N-(3-fluoro-2-{2-[(2S,6R)-6-methyl-1-(phenylsulfonyl)piperazin-2-yl]ethyl}phenyl)-β-(1-methylethyl)-L-phenylalaninamide]: the pIC50 was 6.32.

Regarding `CC(C)[C@H](c1cccc(Cl)c1)[C@H](N)C(=O)Nc1cccc(F)c1CC[C@H]1CNC[C@H](C)N1S(=O)(=O)c1ccccc1` [Example 207, (βR)-3-chloro-N-(3-fluoro-2-{2-[(2S,6S)-6-methyl-1-(phenylsulfonyl)piperazin-2-yl]ethyl}phenyl)-β-(1-methylethyl)-L-phenylalaninamide], the pIC50 was 6.12.

`COC(=O)N[C@H](C(=O)Nc1cccc(F)c1CC[C@H]1CNC[C@@H](C)N1S(=O)(=O)c1ccccc1)[C@@H](c1cccc(Cl)c1)C(C)C` [Example 208, (βR)-3-chloro-N-(3-fluoro-2-{2-[(2S,6R)-6-methyl-1-(phenylsulfonyl)piperazin-2-yl]ethyl}phenyl)-Nα-(methoxycarbonyl)-β-(1-methylethyl)-L-phenylalaninamide]: the pIC50 was 7.38.

`COC(=O)N[C@H](C(=O)Nc1cccc(F)c1CC[C@H]1CNC[C@H](C)N1S(=O)(=O)c1ccccc1)[C@@H](c1cccc(Cl)c1)C(C)C` [Example 209, (βR)-3-chloro-N-(3-fluoro-2-{2-[(2S,6S)-6-methyl-1-(phenylsulfonyl)piperazin-2-yl]ethyl}phenyl)-Nα-(methoxycarbonyl)-β-(1-methylethyl)-L-phenylalaninamide]: the pIC50 is 7.11.

Take `COC(=O)N[C@H](C(=O)Nc1cncc(F)c1CC[C@H]1CNC[C@H](C)N1S(=O)(=O)C1CC1)[C@@H](c1ccc(F)cc1)c1cc(F)cc(F)c1` [Example 210, (βS)-N-(4-{2-[(2S,6S)-1-(cyclopropylsulfonyl)-6-methylpiperazin-2-yl]ethyl}-5-fluoropyridin-3-yl)-β-(3,5-difluorophenyl)-4-fluoro-Nα-(methoxycarbonyl)-L-phenylalaninamide]: the pIC50 is 7.89.

Regarding `COC(=O)N[C@H](C(=O)Nc1cncc(F)c1CC[C@H]1CNC[C@@H](C)N1S(=O)(=O)C1CC1)[C@@H](c1ccc(F)cc1)c1cc(F)cc(F)c1` [Example 211, (βS)-N-(4-{2-[(2S,6R)-1-(cyclopropylsulfonyl)-6-methylpiperazin-2-yl]ethyl}-5-fluoropyridin-3-yl)-β-(3,5-difluorophenyl)-4-fluoro-Nα-(methoxycarbonyl)-L-phenylalaninamide], the pIC50 is 7.80.

With `COC(=O)N[C@H](C(=O)Nc1cccc(F)c1CC[C@H]1CNC[C@H](C)N1S(=O)(=O)C1CC1)[C@@H](c1ccc(F)cc1)c1cc(F)cc(F)c1` [Example 212, (βS)-N-(2-{2-[(2S,6S)-1-(cyclopropylsulfonyl)-6-methylpiperazin-2-yl]ethyl}-3-fluorophenyl)-β-(3,5-difluorophenyl)-4-fluoro-Nα-(methoxycarbonyl)-L-phenylalaninamide], the pIC50 is 7.89.

Consider `C[C@H]1CNC[C@H](CCc2c(F)cncc2NC(=O)[C@@H](N)[C@@H](c2ccc(Cl)cc2)c2cccc(F)c2)N1S(C)(=O)=O` [Example 213, (βS)-4-chloro-N-(5-fluoro-4-{2-[(2S,6S)-6-methyl-1-(methylsulfonyl)piperazin-2-yl]ethyl}pyridin-3-yl)-β-(3-fluorophenyl)-L-phenylalaninamide], for which the pIC50 was 7.54.

On to `C[C@H]1CNC[C@H](CCc2c(F)cccc2NC(=O)[C@@H](N)[C@@H](c2ccc(F)cc2)c2cc(F)cc(F)c2)N1S(=O)(=O)c1ccc(OC(F)(F)F)cc1` [Example 214, (βS)-β-(3,5-difluorophenyl)-4-fluoro-N-(3-fluoro-2-{2-[(2S,6S)-6-methyl-1-{[4-(trifluoromethoxy)phenyl]sulfonyl}piperazin-2-yl]ethyl}phenyl)-L-phenylalaninamide], for which the pIC50 was 7.36.

For `CC(C)[C@H](c1cccc(Cl)c1)[C@H](N)C(=O)Nc1cccc(F)c1CC[C@H]1CNC[C@H](C)N1S(=O)(=O)C1CC1` [Example 215, (βR)-3-chloro-N-(2-{2-[(2S,6S)-1-(cyclopropylsulfonyl)-6-methylpiperazin-2-yl]ethyl}-3-fluorophenyl)-β-(1-methylethyl)-L-phenylalaninamide], the pIC50 is 5.60.

As to `COC(=O)N[C@H](C(=O)Nc1cccc(F)c1CC[C@H]1CNC[C@H](C)N1S(=O)(=O)C1CC1)[C@@H](c1cccc(Cl)c1)C(C)C` [Example 216, (βR)-3-chloro-N-(2-{2-[(2S,6S)-1-(cyclopropylsulfonyl)-6-methylpiperazin-2-yl]ethyl}-3-fluorophenyl)-Nα-(methoxycarbonyl)-β-(1-methylethyl)-L-phenylalaninamide], the pIC50 is 5.89.

Turning to `COC(=O)N[C@H](C(=O)Nc1cccc(F)c1CC[C@H]1CNC[C@@H](C)N1S(=O)(=O)C1CC1)[C@@H](c1cccc(Cl)c1)C(C)C` [Example 217, (βR)-3-chloro-N-(2-{2-[(2S,6R)-1-(cyclopropylsulfonyl)-6-methylpiperazin-2-yl]ethyl}-3-fluorophenyl)-Nα-(methoxycarbonyl)-β-(1-methylethyl)-L-phenylalaninamide], the pIC50 was 5.74.

Turning to `C[C@H]1CNC[C@H](CCc2c(F)cccc2NC(=O)[C@@H](N)[C@H](c2cncc(F)c2)c2cccc(Cl)c2)N1S(=O)(=O)c1ccccc1` [Example 219, (βS)-3-chloro-N-(3-fluoro-2-{2-[(2S,6S)-6-methyl-1-(phenylsulfonyl)piperazin-2-yl]ethyl}phenyl)-β-(5-fluoropyridin-3-yl)-L-phenylalaninamide], the pIC50 is 7.60.

In the case of `C[C@H]1CNC[C@H](CCc2c(F)cccc2NC(=O)[C@@H](N)[C@@H](Cc2ccc(F)cc2)c2ccc(Cl)cc2)N1S(=O)(=O)c1ccc(OC(F)(F)F)cc1` [Example 220, (βS)-4-chloro-β-(4-fluorobenzyl)-N-(3-fluoro-2-{2-[(2S,6S)-6-methyl-1-{[4-(trifluoromethoxy)phenyl]sulfonyl}piperazin-2-yl]ethyl}phenyl)-L-phenylalaninamide], the pIC50 was 6.11.

Take `COC(=O)N[C@H](C(=O)Nc1cccc(F)c1CC[C@H]1CNC[C@H](C)N1S(=O)(=O)c1ccc(OC(F)(F)F)cc1)[C@@H](Cc1ccc(F)cc1)c1ccc(Cl)cc1` [Example 221, (βS)-4-chloro-β-(4-fluorobenzyl)-N-(3-fluoro-2-{2-[(2S,6S)-6-methyl-1-{[4-(trifluoromethoxy)phenyl]sulfonyl}piperazin-2-yl]ethyl}phenyl)-Nα-(methoxycarbonyl)-L-phenylalaninamide]: the pIC50 was 6.64.

Take `COC(=O)N[C@H](C(=O)Nc1cccc(F)c1CC[C@H]1CNCC(COC(C)C)N1S(C)(=O)=O)[C@H](c1cccc(F)c1)c1cccc(Cl)c1` (stereo partly drawn) [Example 222, (βR)-β-(3-chlorophenyl)-3-fluoro-N-(3-fluoro-2-{2-[(2S)-6-[(1-methylethoxy)methyl]-1-(methylsulfonyl)piperazin-2-yl]ethyl}phenyl)-Nα-(methoxycarbonyl)-L-phenylalaninamide]: the pIC50 is 7.12.

Turning to `C[C@H]1CNC[C@H](CCc2c(F)cccc2NC(=O)[C@@H](N)[C@@H](c2ccc(F)cc2)c2cc(F)cc(F)c2)N1S(=O)(=O)C1CC1` [Example 223, (βS)-N-(2-{2-[(2S,6S)-1-(cyclopropylsulfonyl)-6-methylpiperazin-2-yl]ethyl}-3-fluorophenyl)-β-(3,5-difluorophenyl)-4-fluoro-L-phenylalaninamide], the pIC50 is 7.44.

For `CC[C@H]1CNC[C@H](CCc2c(F)cccc2NC(=O)[C@@H](N)[C@@H](c2ccc(Cl)cc2)C2CCOCC2)N1S(C)(=O)=O` [Example 224, (βR)-4-chloro-N-(2-{2-[(2S,6S)-6-ethyl-1-(methylsulfonyl)piperazin-2-yl]ethyl}-3-fluorophenyl)-β-(tetrahydro-2H-pyran-4-yl)-L-phenylalaninamide], the pIC50 was 7.05.

For the molecule `CC[C@H]1CNC[C@H](CCc2c(F)cccc2NC(=O)[C@@H](NC(=O)OC)[C@@H](c2ccc(Cl)cc2)C2CCOCC2)N1S(C)(=O)=O` [Example 225, (βR)-4-chloro-N-(2-{2-[(2S,6S)-6-ethyl-1-(methylsulfonyl)piperazin-2-yl]ethyl}-3-fluorophenyl)-Nα-(methoxycarbonyl)-β-(tetrahydro-2H-pyran-4-yl)-L-phenylalaninamide], the pIC50 was 7.64.

Still in this assay, the particulars now being: MT4-GFP cells infected with HIV-1 H9IIIB; 50% normal human serum; mean of at least two independent experiments; read-out: Cell-based IP.
Regarding `COCC1CNC[C@H](CCc2c(F)cccc2NC(=O)[C@@H](N)[C@@H](c2ccc(Cl)cc2)C2CCOCC2)N1S(C)(=O)=O` (stereo partly drawn) [Example 218, (βR)-4-chloro-N-(3-fluoro-2-{2-[(2S)-6-(methoxymethyl)-1-(methylsulfonyl)piperazin-2-yl]ethyl}phenyl)-β-(tetrahydro-2H-pyran-4-yl)-L-phenylalaninamide], the pIC50 is 6.51.
